This note sets out measurements from patent publication US20240065997A1, “Methods and Compositions for Improving Insulin Production and Secretion” (ABBOTT LABORATORIES, priority 2021, published 2024).

Each structure is given as a SMILES string.

In test [1] the test system is INS-1 cells. In words: Insulin production by INS-1 cells (24 h effectors, then glucose 2 h; RIEI Kit). In kind it is cell-based, rat. The note with it: arginine 5 mM, lysine 10 mM, HMB 25 μM for 24 hours, then glucose 10 mM 2 hours, FIG. 4. The procedure:
Insulin production by β-cells was evaluated by incubating INS-1 cells in the presence of the following effectors: arginine (5 mM), lysine (10 mM), HMB (25 μM), and a combination of arginine (5 mM), lysine (10 mM), and HMB (25 μM). INS-1 cells without effectors were again used as a control. The cells were incubated with each of the above mentioned effectors for 24 hours. Following the initial 24 hour incubation period with the effectors, the same INS-1 cells were incubated with glucose (10 mM) for 2 hours. Insulin was again detected using the RIEI Kit according to the manufacturer's instructions.

Test [2] deals with INS-1 cells. Put plainly: Acute insulin secretion in INS-1 cells (Rat Insulin Enzyme Immunoassay). In kind it is cell-based. The note with it: glucose 10 mM, arginine 5 mM, lysine 10 mM, HMB 25 μM, 2 hours, FIG. 3. The procedure: Acute insulin secretion was determined by incubating INS-1 cells in the presence of the following effectors: glucose (10 mM), and the effectors arginine (5 mM), lysine (10 mM), HMB (25 μM), and a combination of arginine (5 mM), lysine (10 mM), and HMB (25 μM) for 2 hours. INS-1 cells without effectors were used as a control. Insulin was detected using the Rat Insulin Enzyme Immunoassay (RIEI) Kit (Mercodia, Sweden) according to the manufacturer's instructions.

In test [3] the test system is INS-1 cells. In words: MTT cell viability assay in palmitate-treated INS-1 cells. In kind it is cell-based, rat. The settings on record: palmitate 250 μM 24 hours, effectors added 3 hours before (arginine 5 mM, lysine 10 mM, HMB 25 μM), FIG. 6.
Description: This example describes the use of the rat insulinoma cell line (INS-1) to detect the effect of the combination of lysine, arginine, and HMB on the functional characteristics of β-cells in the presence of free fatty acids (e.g., palmitic acid) using standardized protocols for viability. […] The INS-1 cells were maintained in RPMI 1640 medium with 11.1 mmol/L D-glucose supplemented with 10% fetal bovine serum, 100 units/mL penicillin, 100 μg/mL streptomycin, 10 mmol/L HEPES, 2 mmol/L L-glutamine, 1 mmol/L sodium pyruvate, and 50 μmol/L β-mercaptoethanol at 37° C./5% CO2 in a humidified atmosphere.
The pre-confluent pancreatic cells were left either untreated (Control) or treated with palmitate at a concentration of 250 μM for 24 hours in complete medium (Palmitate). Three hours before incubation with palmitate, four different effectors were added: arginine (5 mM), lysine (10 mM), HMB (25 μM), and the combination of arginine (5 mM), lysine (10 mM), and HMB (25 μM).
The cell groups employed in the study were the following: • (i) Control: INS-1 cells without ingredients. • (ii) Palmitate: INS-1 cells incubated in the presence of 250 μM palmitate. • (iii) Palmitate+ARG: INS-1 cells incubated in the presence of 250 μM palmitate and 5 mM of arginine. • (iv) Palmitate+LYS: INS-1 cells incubated in the presence of 250 μM palmitate and 10 mM of lysine. • (v) Palmitate+HMB: INS-1 cells incubated in the presence of 250 μM palmitate and 25 μM of HMB-free acid. • (vi) Palmitate+MIX: INS-1 cells incubated in the presence of 250 μM palmitate and the combination of 5 mM of arginine, 10 mM of lysine, and 25 μM of HMB.
A cell viability assay was performed by the indirect measurement of cell metabolic activity using MTT (3-(4,5-dimethylthiazol-2-yl)-2,5-diphenyltetrazolium bromide). After 24 hours of incubation with the above effectors, the MTT solution (0.5 mg/ml) was added for 30 minutes. The supernatant was removed, 100 μl MTT solvent was added to each well, and the culture plate was shaken for 10 minutes before the Optical Density (OD) values were recorded at 570 nm.
The next test relates to GLUT2. In words: Expression level of glucose transporter GLUT2 in INS-1 cells. The settings on record: HMB 25 μM, FIG. 2; for increase in the relative intensity of the expression level of GLUT2 compared to control: lysine 10 mM, arginine 5 mM.
In test [4] the test system is INS-1 cells. Put plainly: 2-deoxy-[3H]d-glucose (2-DG) uptake in INS-1 cells. The settings on record: overnight incubation, lysine 10 mM, arginine 5 mM, HMB 25 μM, 2-DG uptake over 10 min, FIG. 1. In kind it is cell-based, rat. The procedure:
2-deoxy-[3H]d-glucose (2-DG) (10 μmol/L) uptake was measured over a 10 minute period under conditions in which the uptake was linear. The uptake of 2-DG was terminated after 10 minutes by rapidly aspirating off the radioactive incubation medium and washing the cells three times in ice-cold phosphate-buffered saline. The radioactivity associated with the cells was determined by cell lysis in 0.5 N NaOH with neutralization by the addition of 0.5 N HCl, followed by liquid scintillation. Aliquots from each well were used to determine the protein concentration using the bicinchoninic acid (BCA) Protein assay.

Description for GLUT2: The INS-1 cells were maintained in RPMI 1640 medium with 11.1 mmol/L D-glucose supplemented with 10% fetal bovine serum, 100 units/mL penicillin, 100 μg/mL streptomycin, 10 mmol/L HEPES, 2 mmol/L L-glutamine, 1 mmol/L sodium pyruvate, and 50 μmol/L β-mercaptoethanol at 37° C./5% CO2 in a humidified atmosphere.
The cells were incubated with different effectors overnight. The following cell groups were employed: • (i) Control: INS-1 cells without ingredients. • (ii) ARG: INS-1 cells incubated in the presence of 5 mM of arginine. • (iii) LYS: INS-1 cells incubated in the presence of 10 mM of lysine. • (iv) HMB: INS-1 cells incubated in the presence of 25 μM of HMB-free acid. • (v) MIX: INS-1 cells incubated in the presence of the combination of 5 mM of arginine, 10 mM of lysine, and 25 μM of HMB.

Take `CC(C)(O)CC(=O)O` [HMB, beta-hydroxy-beta-methylbutyrate]: the “insulin production compared to the control (in words)” value with INS-1 cells [1] was “rose slightly”. For the same molecule, in the test with INS-1 cells [2], the “acute response of insulin secretion to extracellular glucose, with respect to the control (in words)” value (“acute response of insulin secretion” below) is reported as “did not show a significant difference”. Besides, the “cell viability at 24 hours (in words)” value with INS-1 cells [3] is listed as “reduced cell viability”. Besides, the “decrease in the relative intensity of the expression level of GLUT2 compared to control” value in the test with GLUT2 is recorded as ~23%. The “increase in glucose uptake compared to the control” value (“increase in glucose uptake” for short) in the test with INS-1 cells [4] is “about 31%”.

For the molecule `N=C(N)NCCC[C@H](N)C(=O)O` [arginine], the “insulin production compared to the control (in words)” value with INS-1 cells [1] was “rose slightly”. Also, in the test on INS-1 cells [2], the “acute response of insulin secretion” value was “did not show a significant difference”. Moreover, in the test on INS-1 cells [3], the “cell viability at 24 hours (in words)” value is reported as “reduced cell viability”. Further, the “increase in the relative intensity of the expression level of GLUT2 compared to control” value with GLUT2 is recorded as ~30%. Further, the “increase in glucose uptake” value in the test on INS-1 cells [4] is listed as “about 52%”.

As for `NCCCC[C@H](N)C(=O)O` [lysine], the “insulin production compared to the control (in words)” value in the test on INS-1 cells [1] is recorded as “rose slightly”. Further, the “acute response of insulin secretion” value in the test with INS-1 cells [2] is “did not show a significant difference”. Besides, in the test on INS-1 cells [3], the “cell viability at 24 hours (in words)” value is on record as “reduced cell viability”. In addition, the “increase in the relative intensity of the expression level of GLUT2 compared to control” value with GLUT2 is reported as ~90%. The “increase in glucose uptake” value in the test on INS-1 cells [4] is listed as “about 100%”.
